pEC50: −log10 of the molar value.
Each compound was assayed against T1, GPCR GPR40 (Rattus norvegicus, UniProt Q8K3T4) (assay: In vitro FLIPR assay with recombinant cells which express the GPCR GPR40). Conditions: recombinant HEK293 cells expressing GPR40; agonist-induced change in intracellular Ca2+ (Fluo-4, FLIPR); 100% = 10 μM reference agonist linoleic acid.
T1 construct: expressed in transfected cells; host or cells: HEK293
Type: cell-based
Procedure: In Vitro FLIPR Assay with Recombinant Cells which Express the GPCR GPR40
Function-testing assays were performed by means of the FLIPR technique (“Fluorescence Imaging Plate Reader”, Molecular Devices Corp.). For this purpose, agonist-induced changes were determined in the intracellular concentration of Ca^2+ in recombinant HEK293 cells which expressed the GPCR GPR40.
For the studies, cells were sown into 96-well microtiter plates (60 000 cells/well) and left to grow overnight. The medium was removed and the cells were incubated in buffer which contains the fluorescent dye Fluo-4. After this loading with dye, the cells were washed, test substance was added and changes were measured in the intracellular Ca^2+ concentration in the FLIPR instrument. Results were presented as the percentage change relative to the control (0%: no test substance added; 100%: 10 μM reference agonist linoleic acid added) and used to calculate dose/effect curves, and EC50 values were determined.

T1 sequence (Q8K3T4 whole entry): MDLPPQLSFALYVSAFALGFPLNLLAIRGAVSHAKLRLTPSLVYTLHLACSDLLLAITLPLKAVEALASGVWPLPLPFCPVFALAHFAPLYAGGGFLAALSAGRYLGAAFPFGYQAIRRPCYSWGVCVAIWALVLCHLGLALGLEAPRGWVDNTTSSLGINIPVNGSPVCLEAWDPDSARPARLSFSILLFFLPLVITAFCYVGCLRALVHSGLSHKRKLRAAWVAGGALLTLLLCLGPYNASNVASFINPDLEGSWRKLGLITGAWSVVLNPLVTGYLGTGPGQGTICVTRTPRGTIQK

| pEC50 | SMILES |
| --- | --- |
| 6.14 | CC#CC(CC(=O)O)c1ccc(OCC2(COc3cccc(C(C)(C)C)c3)CC2)cc1 (stereo not drawn) [Example 1, 3-{4-[1-(3-tert-Butylphenoxymethyl)cyclopropylmethoxy]phenyl}hex-4-ynoic acid] |
| 6.43 | CC#CC(CC(=O)O)c1ccc(OCC2(COc3ccc(C(F)(F)F)cc3)CC2)cc1 (stereo not drawn) [Example 2, 3-{4-[1-(4-Trifluoromethylphenoxymethyl)cyclopropylmethoxy]phenyl}hex-4-ynoic acid] |
| 6.54 | CC#CC(CC(=O)O)c1ccc(OCC2(COc3cccc(Cl)c3)CC2)cc1 (stereo not drawn) [Example 3, 3-{4-[1-(3-Chlorophenoxymethyl)cyclopropylmethoxy]phenyl}hex-4-ynoic acid] |
| 5.59 | CC#CC(CC(=O)O)c1ccc(OCC2(COc3ccc(C(F)(F)F)cc3Cl)COC2)cc1 (stereo not drawn) [Example 4, 3-{4-[3-(2-Chloro-4-trifluoromethylphenoxymethyl)oxetan-3-ylmethoxy]phenyl}hex-4-ynoic acid] |
| 5.59 | CC#CC(CC(=O)O)c1ccc(OCC2(COc3cccc(C(C)(C)C)c3)CCC2)cc1 (stereo not drawn) [Example 5, 3-{4-[1-(3-tert-Butylphenoxymethyl)cyclobutylmethoxy]phenyl}hex-4-ynoic acid] |
| 5.88 | CC#CC(CC(=O)O)c1ccc(OCC2(COc3ccc(C(F)(F)F)cc3)CCC2)cc1 (stereo not drawn) [Example 6, 3-{4-[1-(4-Trifluoromethylphenoxymethyl)cyclobutylmethoxy]phenyl}hex-4-ynoic acid] |
| 5.81 | CC#CC(CC(=O)O)c1ccc(OCC2(COc3cccc(C)c3)CCC2)cc1 (stereo not drawn) [Example 7, 3-[4-(1-m-Tolyloxymethylcyclobutylmethoxy)phenyl]hex-4-ynoic acid] |
| 6.35 | CC#CC(CC(=O)O)c1ccc(OCC2(COc3ccccc3)CCC2)cc1 (stereo not drawn) [Example 8, 3-[4-(1-Phenoxymethylcyclobutylmethoxy)phenyl]hex-4-ynoic acid] |
| 5.78 | CC#CC(CC(=O)O)c1ccc(OCC2(COc3cc(C(F)(F)F)cc(C(F)(F)F)c3)CC2)cc1 (stereo not drawn) [Example 9, 3-{4-[1-(3,5-Bis(trifluoromethyl)phenoxymethyl)cyclopropylmethoxy]phenyl}hex-4-ynoic acid] |
| 7.15 | CC#CC(CC(=O)O)c1ccc(OCC2(COc3ccccc3)CC2)cc1 (stereo not drawn) [Example 10, 3-[4-(1-Phenoxymethylcyclopropylmethoxy)phenyl]hex-4-ynoic acid] |
| 6.82 | CC#CC(CC(=O)O)c1ccc(OCC2(COc3cccc(C)c3)CC2)cc1 (stereo not drawn) [Example 11, 3-[4-(1-m-Tolyloxymethylcyclopropylmethoxy)phenyl]hex-4-ynoic acid] |
| 6.85 | CC#CC(CC(=O)O)c1ccc(OCC2(COc3ccc(C#N)c(Cl)c3)CC2)cc1 (stereo not drawn) [Example 12, 3-{4-[1-(3-Chloro-4-cyanophenoxymethyl)cyclopropylmethoxy]phenyl}hex-4-ynoic acid] |
| 6.15 | CC#CC(CC(=O)O)c1ccc(OCC2(COc3ccc(C(F)(F)F)nc3)CC2)cc1 (stereo not drawn) [Example 13, 3-{4-[1-(6-Trifluoromethylpyridin-3-yloxymethyl)cyclopropylmethoxy]phenyl}hex-4-ynoic acid] |
| 6.77 | CC#CC(CC(=O)O)c1ccc(OCC2(COc3ccc(C(F)(F)F)cn3)CC2)cc1 (stereo not drawn) [Example 14, 3-{4-[1-(5-Trifluoromethylpyridin-2-yloxymethyl)cyclopropylmethoxy]phenyl}hex-4-ynoic acid] |
| 5.80 | CC#CC(CC(=O)O)c1ccc(OCC2(COc3ccc(C(F)(F)F)cc3Cl)CC2)cc1 (stereo not drawn) [Example 15, 3-{4-[1-(2-Chloro-4-trifluoromethylphenoxymethyl)cyclopropylmethoxy]phenyl}hex-4-acid] |
| 5.61 | COC(CC(=O)O)c1ccc(OCC2(COc3ccc(C(F)(F)F)cn3)CC2)cc1 (stereo not drawn) [Example 16, 3-Methoxy-3-{4-[1-(5-trifluoromethylpyridin-2-yloxymethyl)cyclopropylmethoxy]phenyl}-propionic acid] |
| 7.22 | CC#CC(CC(=O)O)c1ccc(OCC2(COc3ccccc3C)CC2)cc1 (stereo not drawn) [Example 18, 3-[4-(1-o-Tolyloxymethylcyclopropylmethoxy)phenyl]hex-4-ynoic acid] |
| 7.15 | CC#CC(CC(=O)O)c1ccc(OCC2(COc3ccc(F)cc3)CC2)cc1 (stereo not drawn) [Example 19, 3-{4-[1-(4-Fluorophenoxymethyl)cyclopropylmethoxy]phenyl}hex-4-ynoic acid] |
| 7.15 | CC#CC(CC(=O)O)c1ccc(OCC2(COc3cccc(F)c3)CC2)cc1 (stereo not drawn) [Example 20, 3-{4-[1-(3-Fluorophenoxymethyl)cyclopropylmethoxy]phenyl}hex-4-ynoic acid] |
| 6.96 | CC#CC(CC(=O)O)c1ccc(OCC2(COc3ccccc3F)CC2)cc1 (stereo not drawn) [Example 21, 3-{4-[1-(2-Fluorophenoxymethyl)cyclopropylmethoxy]phenyl}hex-4-ynoic acid] |
| 6.48 | CC#CC(CC(=O)O)c1ccc(OCC2(COc3ccc(F)c(Cl)c3)CC2)cc1 (stereo not drawn) [Example 22, 3-{4-[1-(3-Chloro-4-fluorophenoxymethyl)cyclopropylmethoxy]phenyl}hex-4-ynoic acid] |
